Measurements reported in paper PMC11944514, “Dengue Virus Inhibitors as Potential Broad-Spectrum Flavivirus Inhibitors” (Pharmaceuticals, 2025).
pEC50: −log10 of the molar value. Like-named read-outs stand apart in the source and are kept apart here.

Columns and labels:
TBEV = conditions: cited from earlier work
Vero E6 [1] = conditions: cited from earlier work
ZIKV [2] = test system: ZIKV; set-up: method as in PMID 29642580; conditions: reference inhibitor compound; cited from earlier work
KUNV = conditions: cited from earlier work
KUNV-Nanoluc replicon = format: cell-based
TBEV-Nanoluc replicon = format: cell-based
DENV2-Nanoluc = assay: microbe, parasite or virus in culture; format: cell-based; conditions: for EC50: DENV2, Vero C1008, read-out: DENV2 EC50, μM
ZIKV [3] = test system: ZIKV; set-up: method as in PMID 32452420; conditions: Vero E6 cells; read-out: EC50, inhibition of ZIKV replication; cited from earlier work
KUNV-Nanoluc = assay: organism not typed; format: cell-based; conditions: for EC50: Vero C1008, read-out: KUNV EC50, μM
TBEV-Nanoluc = assay: microbe, parasite or virus in culture; format: cell-based; conditions: for EC50: Tick-borne encephalitis virus, Vero C1008, read-out: TBEV EC50, μM
ZIKV-Nanoluc = assay: microbe, parasite or virus in culture; format: cell-based; conditions: for EC50: Zika virus, Vero C1008, read-out: ZIKV EC50, μM
DENV2-Nanoluc replicon = format: cell-based
[4] = xCELLigence real-time cytotoxicity assay (RTCA), CC50; format: cell-based; conditions: African green monkey, Vero E6 cells, 24 h of exposure
Method: As compounds C1, C2, and C3 were relatively toxic (Figure 2A), we determined the selectivity index (SI) of the identified potential broad-spectrum flavivirus inhibitors. As the WST-1 assay tends to underestimate the toxic effect and is unable to detect cytostatic effects, the CC50 of the perspective compounds was measured using a more sensitive xCELLigence real-time cytotoxicity assay (RTCA). […] The full xCELLigence RTCA data are provided in the Supporting Information section (Figures S2 and S3). Thereafter, for each compound, the SI was calculated as a ratio of the CC50 of a compound against its EC50 [36].
Vero E6 cells were seeded on a 16-well E-plate (ACEA Biosciences, Inc., San Diego, CA, USA ) at a density of 5 × 10^3 cells/well and allowed to adhere overnight. On the next day, the studied compounds were added at the final concentrations ranging from 0.078 μM to 5 μM with a two-fold dilution step for compounds C1, C2, and C3, and at the final concentrations ranging from 1.56 μM to 50 μM with a two-fold dilution step for compounds C5 and C6; 0.01% DMSO was used as a solvent control. The cells were incubated for 5 days, and the signals between the electrodes (impedance) were recorded using an RTCA xCELLigence machine (Agilent Technologies, Inc., Santa Clara, CA, USA). […] The CC50 values were calculated using GraphPad Prism 10.0 for Windows, GraphPad Software, v. 10.4.1, Boston, MA, USA, www.graphpad.com (accessed on 16 February 2025).

WNV, DENV, and YFV = conditions: cited from earlier work
ZIKV-Nanoluc replicon = format: cell-based
[5] = test system: New Guinea C strain of DENV2; conditions: human Huh7 cells infected for 48 h, Renilla luciferase assay; read-out: EC50 against the New Guinea C strain of DENV2; cited from earlier work
U2OS cells [6] = test system: U2OS cells; set-up: method as in PMID 31609477; conditions: previously reported; read-out: 50% cytotoxic concentration (CC50) against U2OS cells; cited from earlier work
U2OS cells [7] = assay: WST-1 cell viability assay, U2OS; format: cell-based, human; conditions: 48 h of exposure
Method: (§1) Vero E6 or U2OS cells were seeded on the 96-well plate at a density of 1 × 10^4 cells/well and were allowed to adhere overnight. Next day, the cells were treated with the studied compounds at concentrations ranging from 1 to 100 μM with a ten-fold dilution step. As a solvent control, 0.01% DMSO (Sigma, St. Louis, MO, USA) was used. After 48 h of exposure, 10 μL of WST-1 (10 mg/mL) cell proliferation reagent (Roche, Cat. No. 11644807001) was added to each well, and plates were incubated at 37 °C, 5% CO2 for 2 h. The optical density was then measured at 450 nm using an Epoch Microplate Spectrophotometer (BioTek Instruments, Inc., Winooski, VT, USA). Four independent experiments were carried out in triplicates.

DENV-2-NGC = test system: DENV-2-NGC; set-up: method as in PMID 17360676; conditions: Vero E6 cells; read-out: EC50, inhibition of DENV-2-NGC activity; cited from earlier work
Vero E6 cells = assay: WST-1 cell viability assay, Vero E6; format: cell-based, African green monkey; conditions: Vero E6, 48 h of exposure
Method: The cytotoxic effect of all studied compounds was assessed using the WST-1 assay after 48 h of exposure. […] This observation can be explained by the fact that the compound C8 is resazurin, phenoxazine dye, also known as Alamar Blue, which is subject to irreversible metabolic reduction to the resorufin by live mammalian cells. Thus, the cytotoxic effect of this compound cannot be assessed by the WST-1 assay correctly. Therefore, the C8 cytotoxicity was further assessed using the resazurin cell viability assay. This assay allowed us to avoid the interference between the tested compound and dye and obtain more reliable results for colored compounds.
as §1

DENV2 [8] = test system: DENV2; set-up: method as in PMID 25878766; conditions: BHK-21 cells; read-out: EC50, inhibition of DENV2 infection; cited from earlier work
Vero E6 [9] = test system: Vero E6; set-up: method as in PMID 20837762; conditions: reference inhibitor compound; cited from earlier work
DENV2 [10] = test system: DENV2; set-up: method as in PMID 20837762; conditions: reference inhibitor compound; cited from earlier work

SMILES	antiviral effect against KUNV-Nanoluc replicon (KUNV-Nanoluc replicon)	antiviral effect against TBEV-Nanoluc replicon (TBEV-Nanoluc replicon)	antiviral effect against DENV2-Nanoluc (initial screening) (DENV2-Nanoluc)	EC50 (DENV2-Nanoluc; Dengue virus) [µM]	antiviral effect against KUNV-Nanoluc (initial screening) (KUNV-Nanoluc)	EC50 (KUNV-Nanoluc) [µM]	antiviral effect against TBEV-Nanoluc (initial screening) (TBEV-Nanoluc)	EC50 (TBEV-Nanoluc) [µM]	antiviral effect against ZIKV-Nanoluc (initial screening) (ZIKV-Nanoluc)	concentration at which a statistically significant antiviral effect appeared (ZIKV-Nanoluc) (ZIKV-Nanoluc) [µM]	EC50 (ZIKV-Nanoluc) [µM]	antiviral effect against DENV2-Nanoluc replicon (DENV2-Nanoluc replicon)	CC50 at 24 h [4] [µM]	antiviral effect against ZIKV-Nanoluc replicon (ZIKV-Nanoluc replicon)	further results
CCOC(=O)c1c(CSc2ccccc2)n(C)c2cc(Br)c(O)c(CN(C)C)c12 [Arbidol]	–	–	–	–	–	–	–	–	–	–	–	–	–	–	pEC50 (TBEV): 4.73; CC50 (Vero E6 [1]): 89700 nM; pEC50 (ZIKV [2]): 4.92; pEC50 (KUNV): 4.73
O[C@H]1[C@H]2c3cc4c(cc3CN3CCC(=C[C@@H]1O)[C@H]23)OCO4 [Compound C1, (1S,17S,18S,19S)-5,7-dioxa-12-azapentacyclo[10.6.1.0^2,^10.0^4,^8.0^15,^19]nonadeca-2(10),3,8,15-tetraene-17,18-diol]	later addition (at 8 h post-transfection) of C1 had a lower antiviral effect compared to earlier	later addition (at 8 h post-transfection) of C1 had a lower antiviral effect compared to earlier	apparent dose-dependent antiviral effects	0.09	apparent dose-dependent antiviral effect	0.17	the ten-fold increase in concentration did not lead to any significant improvement of the antiviral effect	0.09	completely inhibited the ZIKV-Nanoluc replication at the maximum tested concentration	0.2	0.13	later addition (at 8 h post-transfection) of C1 had a lower antiviral effect compared to earlier	1.3	later addition (at 8 h post-transfection) of C1 had a lower antiviral effect compared to earlier	pEC50 (ZIKV [3]): 6.41; concentration at which the antiviral effect appeared (TBEV-Nanoluc) (TBEV-Nanoluc): 0.2 µM; reduction of viral titers of WNV, DENV, and YFV (WNV, DENV, and YFV): 10^2- to 10^4 fold
CC(C)(C)Oc1cccc2nc(N)nc(N)c12 [Compound C2, 5-(tert-butoxy)quinazoline-2,4-diamine]	–	–	apparent dose-dependent antiviral effects	~0.13	decreased the KUNV-Nanoluc activity only at the maximum tested concentrations	0.26	clear dose-dependent antiviral effect	–	completely inhibited the ZIKV-Nanoluc replication at the maximum tested concentration	0.2	0.48	–	0.31	–	pEC50 (DENV2-Nanoluc; Dengue virus, DENV2, Vero C1008, read-out: EC50 against DENV2): ~6.89; pEC50 [5]: 8.55
COc1c(C)c2c(c(O)c1CC=C(C)CCC(=O)O)C(=O)OC2 [Compound C3, 6-(4-hydroxy-6-methoxy-7-methyl-3-oxo-1,3-dihydro-2-benzofuran-5-yl)-4-methylhex-4-enoic acid]	no effect at the maximum non-toxic concentration	no effect at the maximum non-toxic concentration	apparent dose-dependent antiviral effects	0.12	apparent dose-dependent antiviral effect	0.21	clear dose-dependent antiviral effect	0.61	only demonstrated a statistically significant antiviral effect at the maximum tested concentration	–	0.53	no effect at the maximum non-toxic concentration	> 5	no effect at the maximum non-toxic concentration	CC50 (U2OS cells [6]): 1660 nM; cytotoxic effect (WST-1 assay) (U2OS cells [7]): extremely toxic for the U2OS cell line even at the lowest micromolar concentration; pEC50 (DENV-2-NGC): 5.24
CN1C(=O)C2(CC(=O)Nc3c2cnn3Cc2ccc(Cl)cc2)c2cc(Cl)ccc21 (stereo not shown) [Compound C6, 5-chloro-1′-[(4-chlorophenyl)methyl]-1-methyl-1,1′,2,5′,6′,7′-hexahydrospiro[indole-3,4′-pyrazolo[3,4-b]pyridine]-2,6′-dione]	most active against all the studied viral replicons	most active against all the studied viral replicons	apparent dose-dependent antiviral effects	–	decreased the KUNV-Nanoluc activity only at the maximum tested concentrations	20.6	clear dose-dependent antiviral effect	–	partially inhibited the virus activity at this concentration	–	23.9	most active against all the studied viral replicons	> 50	most active against all the studied viral replicons	cytotoxic effect (WST-1 assay) (Vero E6 cells): no cytotoxic effect at the maximal tested concentration; pEC50 (DENV2 [8]): 8.22; pEC50 (TBEV-Nanoluc; read-out: TBEV EC50): 4.86
COc1cccc2c1C(=O)c1c(O)c3c(c(O)c1C2=O)C[C@@](O)(C(=O)CO)C[C@@H]3O[C@H]1C[C@H](N)[C@H](O)[C@H](C)O1 [Doxorubicin]	–	–	–	–	–	–	–	–	–	–	–	–	–	–	CC50 (Vero E6 [9]): 24 µM; pEC50 (DENV2 [10]): 5.92
